These results are taken from patent US8791107B2, “N-substituted oxazinopteridines and oxazinopteridinones” (Takeda Pharmaceutical Company Limited, priority 2011, dated 2014).

Structures are written as SMILES.

T1 sequence (O00329 whole entry): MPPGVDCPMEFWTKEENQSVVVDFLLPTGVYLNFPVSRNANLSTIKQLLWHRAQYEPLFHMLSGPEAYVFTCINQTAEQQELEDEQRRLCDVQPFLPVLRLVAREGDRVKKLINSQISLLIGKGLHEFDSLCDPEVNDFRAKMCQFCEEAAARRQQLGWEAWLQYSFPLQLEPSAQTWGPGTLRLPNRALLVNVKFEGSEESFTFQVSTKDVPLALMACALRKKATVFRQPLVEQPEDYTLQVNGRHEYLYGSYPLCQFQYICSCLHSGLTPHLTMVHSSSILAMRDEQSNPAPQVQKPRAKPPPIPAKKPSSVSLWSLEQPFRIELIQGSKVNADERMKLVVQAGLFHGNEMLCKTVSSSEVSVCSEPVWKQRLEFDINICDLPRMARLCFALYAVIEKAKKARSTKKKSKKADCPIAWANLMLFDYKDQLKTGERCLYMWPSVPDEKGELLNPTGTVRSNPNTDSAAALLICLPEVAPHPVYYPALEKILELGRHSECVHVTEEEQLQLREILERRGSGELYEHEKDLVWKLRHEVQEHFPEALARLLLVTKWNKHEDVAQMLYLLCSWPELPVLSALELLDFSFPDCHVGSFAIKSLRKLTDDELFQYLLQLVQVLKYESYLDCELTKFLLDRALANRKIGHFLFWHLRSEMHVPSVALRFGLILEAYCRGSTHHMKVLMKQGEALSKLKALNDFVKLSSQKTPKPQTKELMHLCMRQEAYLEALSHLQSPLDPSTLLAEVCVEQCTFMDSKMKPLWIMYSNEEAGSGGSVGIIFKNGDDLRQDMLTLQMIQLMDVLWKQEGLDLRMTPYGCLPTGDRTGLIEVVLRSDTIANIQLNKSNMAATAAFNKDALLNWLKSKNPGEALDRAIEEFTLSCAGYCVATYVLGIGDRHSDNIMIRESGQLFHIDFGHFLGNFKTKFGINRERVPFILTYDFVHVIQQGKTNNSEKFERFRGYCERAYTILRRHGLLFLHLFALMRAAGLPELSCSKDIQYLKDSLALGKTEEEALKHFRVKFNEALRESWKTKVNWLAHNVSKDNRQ
T1 sequence (P27986 whole entry partner): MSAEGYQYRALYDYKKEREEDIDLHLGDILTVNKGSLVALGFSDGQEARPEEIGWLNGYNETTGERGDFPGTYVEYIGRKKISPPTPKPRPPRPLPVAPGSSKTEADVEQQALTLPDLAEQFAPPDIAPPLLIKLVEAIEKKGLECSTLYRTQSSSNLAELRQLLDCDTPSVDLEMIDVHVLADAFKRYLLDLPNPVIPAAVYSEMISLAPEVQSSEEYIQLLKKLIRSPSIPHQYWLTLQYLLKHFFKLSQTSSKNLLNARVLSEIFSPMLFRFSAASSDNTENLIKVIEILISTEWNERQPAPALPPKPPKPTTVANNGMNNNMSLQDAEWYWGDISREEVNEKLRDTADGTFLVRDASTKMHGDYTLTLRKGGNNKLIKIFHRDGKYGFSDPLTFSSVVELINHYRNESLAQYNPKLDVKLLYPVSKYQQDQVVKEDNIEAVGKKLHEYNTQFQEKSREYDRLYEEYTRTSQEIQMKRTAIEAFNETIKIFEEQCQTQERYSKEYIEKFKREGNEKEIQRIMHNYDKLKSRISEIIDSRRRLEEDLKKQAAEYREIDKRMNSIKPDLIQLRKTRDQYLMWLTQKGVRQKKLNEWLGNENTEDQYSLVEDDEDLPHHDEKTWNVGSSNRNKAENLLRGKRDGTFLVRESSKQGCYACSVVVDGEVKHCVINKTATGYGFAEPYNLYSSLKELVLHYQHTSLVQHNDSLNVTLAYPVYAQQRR

The experiment addresses T1, PI3Kδ (Homo sapiens, UniProt O00329).
T1 construct: The protein is full length and co-expressed with untagged PIK3R1; GST; purchased Invitrogen PV5274
The experiment in a line: PI3Kδ inhibition, modified PIK3CD Adapta TR-FRET assay. The experiment is classed as biochemical. Particulars: recombinant GST-tagged full length PIK3CD co-expressed with PIK3R1 (p85α); 2 μM ATP, 50 μM PIP2; read-out: PI3Kδ Inhibition (pIC50) (converted). The procedure: The activity of compounds as PI3Kδ inhibitors may be determined by a variety of methods, including in vitro and in vivo methods. The following in vitro assay measures a test compound's ability to inhibit PI3Kδ-mediated phosphorylation of PIP2 and ATP.
Recombinant GST-tagged PIK3CD is purchased from Invitrogen (Part Number: PV5274). The protein is full length and co-expressed with untagged PIK3R1, phosphoinositide-3-kinase regulatory subunit 1 (p85α). The protein is stored at −20° C. in 50 mM TRIS (pH 7.5), 150 mM NaCl, 0.5 mM EDTA, 0.02% Triton® X-100, 2 mM DTT, and 50% glycerol.
A modified PIK3CD Adapta® assay (Invitrogen, Carlsbad, Calif.) is used to measure PI3Kδ inhibition of the example compounds. The assay has two phases. In the first phase, kinase reaction components, which include the enzyme (PIK3CD), substrates (PIP2, ATP), test compound (inhibitor), and assay buffer are added to each well, and the reaction is allowed to incubate for a pre-determined period of time. […] In the presence of the inhibitor, the amount of ADP formed by the kinase reaction is reduced, and the resulting intact antibody-tracer interaction maintains a high TR-FRET signal.
The reaction buffer contains 50 mM Hepes (pH 7.5), 3 mM MgCl2, 1 mM EGTA, 100 mM NaCl, 0.03% CHAPS; 2 mM DTT is added fresh prior to each experiment. […] Next, test compounds (2 μL) from a source plate (5% dilution plate) are introduced into the wells. The final DMSO concentration in each assay well is 1%. […] Other wells contain test compounds serially diluted across the plate 11 times for a total of 12 data points. The kinase reactions are carried out at room temperature and are initiated by the addition of 4 μL of solution containing 2 μM ATP and 50 μM PIP2. […] This emission signal is referenced or “ratioed” to the emission from Eu at 620 nm. […] The percent inhibition for a given inhibitor concentration is computed from % conversion for the reaction and for the positive and negative controls.
As for `COc1cc(C#N)ccc1CN1CC2COCCN2c2nc(-c3cccc4[nH]ccc34)ncc21` (centres unmarked) [Example 47, 4-((2-(1H-indol-4-yl)-6a,7,9,10-tetrahydro-[1,4]oxazino[3,4-h]pteridin-5(6H)-yl)methyl)-3-methoxybenzonitrile], the IC50 was 158 nM.
The same measure for `O=C(Cc1ccccc1)N1CC2COCCN2c2nc(-c3cccc4[nH]ccc34)ncc21` (centres unmarked) [Example 48, 1-(2-(1H-indol-4-yl)-6a,7,9,10-tetrahydro-[1,4]oxazino[3,4-h]pteridin-5(6H)-yl)-2-phenylethanone]: 251 nM; for `O=C(Cc1cccs1)N1CC2COCCN2c2nc(-c3cccc4[nH]ccc34)ncc21` (centres unmarked) [Example 49, 1-(2-(1H-indol-4-yl)-6a,7,9,10-tetrahydro-[1,4]oxazino[3,4-h]pteridin-5(6H)-yl)-2-(thiophen-2-yl)ethanone]: 200 nM.
As for `COc1cccc(CC(=O)N2CC3COCCN3c3nc(-c4cccc5[nH]ccc45)ncc32)c1` (centres unmarked) [Example 50, 1-(2-(1H-indol-4-yl)-6a,7,9,10-tetrahydro-[1,4]oxazino[3,4-h]pteridin-5(6H)-yl)-2-(3-methoxyphenyl)ethanone], the IC50 was 316 nM.
As for `O=C(Cc1ccsc1)N1CC2COCCN2c2nc(-c3cccc4[nH]ccc34)ncc21` (centres unmarked) [Example 51, 1-(2-(1H-indol-4-yl)-6a,7,9,10-tetrahydro-[1,4]oxazino[3,4-h]pteridin-5(6H)-yl)-2-(thiophen-3-yl)ethanone], the IC50 was 251 nM.
The same measure for `O=C(Cc1coc2ccccc12)N1CC2COCCN2c2nc(-c3cccc4[nH]ccc34)ncc21` (centres unmarked) [Example 52, 1-(2-(1H-indol-4-yl)-6a,7,9,10-tetrahydro-[1,4]oxazino[3,4-h]pteridin-5(6H)-yl)-2-(benzofuran-3-yl)ethanone]: 398 nM.
With `O=C(OCc1ccccc1)N1CC2COCCN2c2nc(-c3cccc4[nH]ccc34)ncc21` (centres unmarked) [Example 53, benzyl 2-(1H-indol-4-yl)-6a,7,9,10-tetrahydro-[1,4]oxazino[3,4-h]pteridine-5(6H)-carboxylate] the figure was 251 nM; with `O=C(Cc1c(F)cccc1F)N1CC2COCCN2c2nc(-c3cccc4[nH]ccc34)ncc21` (centres unmarked) [Example 54], 501 nM; with `CC(=O)N1CC2COCCN2c2nc(-n3c(C(F)F)nc4ccccc43)ncc21` (centres unmarked) [Example 55, 1-(2-(2-(difluoromethyl)-1H-benzo[c]imidazol-1-yl)-6a,7,9,10-tetrahydro-[1,4]oxazino[3,4-h]pteridin-5(6H)-yl)ethanone], 631 nM.
For the molecule `CC(=O)N1CC2COCCN2c2nc(-n3c(C)nc4ccccc43)ncc21` (centres unmarked) [Example 56, 1-(2-(2-methyl-1H-benzo[d]imidazol-1-yl)-6a,7,9,10-tetrahydro-[1,4]oxazino[3,4-h]pteridin-5(6H)-yl)ethanone], the IC50 was 3160 nM.
As for `CC(C)(C)OC(=O)N[C@H]1CC[C@H](CN2CC3COCCN3c3nc(-c4cccc5[nH]ccc45)ncc32)CC1` (some centres unmarked) [Example 57, tert-butyl ((1r,4r)-4-((2-(1H-indol-4-yl)-6a,7,9,10-tetrahydro-[1,4]oxazino[3,4-h]pteridin-5(6H)-yl)methyl)cyclohexyl)carbamate], the IC50 is 794 nM.
The same measure for `N[C@H]1CC[C@H](CN2CC3COCCN3c3nc(-c4cccc5[nH]ccc45)ncc32)CC1` (some centres unmarked) [Example 58, (1r,4r)-4-((2-(1H-indol-4-yl)-6a,7,9,10-tetrahydro-[1,4]oxazino[3,4-h]pteridin-5(6H)-yl)methyl)cyclohexanamine]: 501 nM; for `N#Cc1ccc(F)c(CN2CC3COCCN3c3nc(-c4cccc5[nH]ccc45)ncc32)c1` (centres unmarked) [Example 60, 3-((2-(1H-indol-4-yl)-6a,7,9,10-tetrahydro-[1,4]oxazino[3,4-h]pteridin-5(6H)-yl)methyl)-4-fluorobenzonitrile]: 31.6 nM.
As to `CNC(=O)Nc1ccc(-c2ncc3c(n2)N2CCOCC2CN3Cc2ccccc2)cc1` (centres unmarked) [Example 61, 1-(4-(5-benzyl-5,6,6a,7,9,10-hexahydro-[1,4]oxazino[3,4-h]pteridin-2-yl)phenyl)-3-methylurea], the IC50 was 631 nM.
